Data published in the Deep4Chem optical property database.
Blank lines part the entries; values can stand above or below the compound they belong to.

Assay: photoluminescence quantum yield (fraction); solvent given as SMILES

Structure (SMILES): CCCCCCOc1ccc(C#Cc2ccc(C#CC#Cc3ccc(C#Cc4ccc(OCCCCCC)c(OCCCCCC)c4)c4nsnc34)c3nsnc23)cc1OCCCCCC
photoluminescence quantum yield (in CN(C)C=O): 0.006
photoluminescence quantum yield (in COc1ccccc1): 0.43
photoluminescence quantum yield (in Cc1ccccc1): 0.58
photoluminescence quantum yield (in ClC(Cl)Cl): 0.49
photoluminescence quantum yield (in ClCCCl): 0.27
photoluminescence quantum yield (in ClCCl): 0.36

Structure (SMILES): Cc1cc(C)c(C2=[N+]3C(=Cc4c(C)cc(C)n4[B-]3(F)F)c3ccccc32)[nH]1
photoluminescence quantum yield (in C1CCOC1): 0.06
photoluminescence quantum yield (in CC#N): 0.02
photoluminescence quantum yield (in CCCCCC): 0.85
photoluminescence quantum yield (in CO): 0.03
photoluminescence quantum yield (in Cc1ccccc1): 0.81
photoluminescence quantum yield (in ClCCl): 0.61

Structure (SMILES): COc1ccc(-c2nc(C)cc(-c3ccc(-n4c5ccccc5c5ccccc54)cc3)n2)cc1
photoluminescence quantum yield (in C1CCOC1): 0.47
photoluminescence quantum yield (in CN(C)C=O): 0.68
photoluminescence quantum yield (in Cc1ccccc1): 0.46
photoluminescence quantum yield (in ClC(Cl)Cl): 0.65

Structure (SMILES): CC1=[N+]2C(=C(c3ccc(Br)cc3)c3ccc(C)n3[B-]2(F)F)C=C1c1cc2n(c1)[B-](F)(F)[N+]1=CC=CC1=C2c1c(C)cc(C)cc1C
photoluminescence quantum yield (in C1CCCCC1): 0.85
photoluminescence quantum yield (in CCOC(C)=O): 0.21

Structure (SMILES): C1=[N+](c2ccccc2)[B-]2(Oc3c1ccc1c4c(ccc31)C=[N+](c1ccccc1)[B-]1(O4)c3ccccc3Oc3ccccc31)c1ccccc1Oc1ccccc12
photoluminescence quantum yield (in Cc1ccccc1): 0.77
photoluminescence quantum yield (in ClCCl): 0.81

Structure (SMILES): F[B-]1(F)n2c(Cl)c(Cl)c(Br)c2C(Oc2ccccc2)=C2C(Br)=C(Cl)C(Cl)=[N+]21
photoluminescence quantum yield (in ClCCl): 0.05

Structure (SMILES): c1cc2c3c(cccc3c1)C(N1CCOCCOCCOCCOCC1)=N2
photoluminescence quantum yield (in CC#N): 0.004

Structure (SMILES): Cc1cc(=O)oc2c1cc(Br)c1occ(C)c12
photoluminescence quantum yield (in C1CCCCC1): 0.0006
photoluminescence quantum yield (in C1COCCO1): 0.001
photoluminescence quantum yield (in CC#N): 0.002
photoluminescence quantum yield (in CCO): 0.004
photoluminescence quantum yield (in OCC(F)(F)F): 0.004

Structure (SMILES): Cc1ccc(N2C(c3ccccc3[N-]S(=O)(=O)c3ccc(C)cc3)=[NH+]C(c3ccccc3)C2c2ccccc2)cc1 (stereo not given)
photoluminescence quantum yield (in Cc1ccccc1): 0.396

Structure (SMILES): N#Cc1nn(-c2cccc(C(F)(F)F)c2)nc1N1CCCC1
photoluminescence quantum yield (in CC#N): 0.801

Structure (SMILES): CC[N+]1(CC)CN2C(=N1)C(C(=O)[O-])=Cc1ccccc12
photoluminescence quantum yield (in CN(C)C=O): 0.05
photoluminescence quantum yield (in O): 0.736

Structure (SMILES): CCCCN(CCCC)c1ccc2c(c1)C#CC#Cc1cc(C(F)(F)F)ccc1C#Cc1cc(c3cc1C#Cc1ccc(C(F)(F)F)cc1C#CC#Cc1cc(N(CCCC)CCCC)ccc1C#C3)C#C2
photoluminescence quantum yield (in ClCCl): 0.23

Structure (SMILES): O=P1(c2ccccc2)C(c2cc(C(F)(F)F)cc(C(F)(F)F)c2)=Cc2c3ccc4cccc5ccc(c6cc(-c7ccc(N(c8ccccc8)c8ccccc8)cc7)n1c26)c3c45 (stereo not given)
photoluminescence quantum yield (in C1CCCCC1): 0.44
photoluminescence quantum yield (in C1CCOC1): 0.17
photoluminescence quantum yield (in C1COCCO1): 0.48
photoluminescence quantum yield (in CC#N): 0.004
photoluminescence quantum yield (in CC(C)=O): 0.11
photoluminescence quantum yield (in CO): 0.004
photoluminescence quantum yield (in Cc1ccccc1): 0.49
photoluminescence quantum yield (in ClC(Cl)Cl): 0.49
photoluminescence quantum yield (in ClCCl): 0.23

Structure (SMILES): Cc1cc(C)c2nc3c(=O)[nH]c(=O)[nH]c3nc2c1
photoluminescence quantum yield (in CC#N): 0.02

Structure (SMILES): c1ccc2c(c1)c1ccccc1n2-c1ccc(-c2ccc(-c3ccc(-n4c5ccccc5c5ccccc54)nc3-n3c4ccccc4c4ccccc43)nn2)c(-n2c3ccccc3c3ccccc32)n1
photoluminescence quantum yield (in Cc1ccccc1): 0.36

Structure (SMILES): CC(=O)[B-]1(C(C)=O)OC(c2ccc3ccccc3c2)=CC(c2ccc3ccccc3c2)=[O+]1
photoluminescence quantum yield (in CC#N): 0.56
photoluminescence quantum yield (in ClC(Cl)(Cl)Cl): 0.61

Structure (SMILES): COC(=O)/C(C#N)=c1/cc/c(=c2/cc/c(=C(\C#N)C(=O)OC)s2)s1
photoluminescence quantum yield (in Cc1ccccc1): 0.0035

Structure (SMILES): COc1ccc(C2=[N+]3C(=Nc4c(-c5cc(OC)c(OC)c(OC)c5)cc(-c5ccc(OC)cc5)n4[B-]3(F)F)C(c3cc(OC)c(OC)c(OC)c3)=C2)cc1
photoluminescence quantum yield (in Cc1ccccc1): 0.24

Structure (SMILES): CCCCCc1c(C)c2c3ccccc3[nH]c2c2ccccc12
photoluminescence quantum yield (in ClCCl): 0.167

Structure (SMILES): [O-][n+]1c(/C=C/C=C/c2ccccc2)nc(N2CCOCC2)c2c1CCCC2
photoluminescence quantum yield (in ClCCl): 0.06

Structure (SMILES): CC(C)(C)c1cc(-c2c3cccc4c5cccc6c(-c7cc(C(C)(C)C)cc(C(C)(C)C)c7)c7cccc8c9cccc2c9c(c34)c(c65)c78)cc(C(C)(C)C)c1
photoluminescence quantum yield (in Cc1ccccc1): 0.81

Structure (SMILES): CCC1=C(C2=C(C3=C(CC)S(=O)(=O)c4cc(-c5ccc(C(C)=O)s5)ccc43)C(F)(F)C(F)(F)C2(F)F)c2ccc(-c3ccc(C(C)=O)s3)cc2S1(=O)=O
photoluminescence quantum yield (in C1COCCO1): 0

Structure (SMILES): COc1ccc(C2=CC(c3cc(OC)cc(OC)c3)=[O+][B-](F)(F)O2)cc1
photoluminescence quantum yield (in CC#N): 0.02
photoluminescence quantum yield (in CC(C)=O): 0.04
photoluminescence quantum yield (in CCCCCC): 0.25
photoluminescence quantum yield (in Cc1ccccc1): 0.19
photoluminescence quantum yield (in ClCCl): 0.08

Structure (SMILES): CCOC(=O)CN1C(=O)C2=C(c3ccc(C#N)cc3)N(CC(=O)OCC)C(=O)C2=C1c1ccccc1
photoluminescence quantum yield (in CC#N): 0.75
photoluminescence quantum yield (in CS(C)=O): 0.51
photoluminescence quantum yield (in Cc1ccccc1): 0.43

Structure (SMILES): CCN(CC)c1ccc2cc(-c3ccc(-c4ccc5ccc6c(-c7ccc(-c8cc9ccc(N(CC)CC)cc9oc8=O)cc7)ccc7ccc4c5c76)cc3)c(=O)oc2c1
photoluminescence quantum yield (in ClC(Cl)Cl): 0.893

Structure (SMILES): CN(C)c1ccc(/C=C/c2cccnn2)cc1
photoluminescence quantum yield (in ClCCl): 0.02

Structure (SMILES): N#Cc1c(-n2c3ccccc3c3ccccc32)c(-n2c3ccccc3c3ccccc32)c(-n2c3ccccc3c3ccccc32)c(-n2c3ccc(-c4ccccc4)cc3c3cc(-c4ccccc4)ccc32)c1-n1c2ccccc2c2ccccc21
photoluminescence quantum yield (in Cc1ccccc1): 0.85

Now from value to compound:

photoluminescence quantum yield (in CC1CCCCC1): 0.03
photoluminescence quantum yield (in CC#N): 0.01
photoluminescence quantum yield (in CO): 0.003
Structure (SMILES): COC(=O)C(NC(=O)OC(C)(C)C)c1ccc2oc(-c3ccc(OC(=O)c4ccccc4)cc3O)nc2c1 (stereo not given)

photoluminescence quantum yield (in CCCCCC): 0.25
Structure (SMILES): CC(C)[Si](C#Cc1c2nc3ccccc3nc2c(C#C[Si](C(C)C)(C(C)C)C(C)C)c2nc3c(ccc4cc5ccccc5cc43)nc12)(C(C)C)C(C)C

photoluminescence quantum yield (in ClC(Cl)Cl): 0.1
Structure (SMILES): COc1ccc2c(C#N)cc3ccc4cc(C#N)c5ccc(OC)cc5c4c3c2c1

photoluminescence quantum yield (in CO): 0.0486
Structure (SMILES): COc1ccc2[nH]cc(/C=C/C3=[NH+]c4cccc5cccc3c45)c2c1

photoluminescence quantum yield (in ClCCl): 0.075
Structure (SMILES): Cc1cc2c3ccccc3[nH]c2c2[nH]c3ccccc3c12

photoluminescence quantum yield (in CS(C)=O): 0.52
Structure (SMILES): COc1cc2sc3nc(-c4ccccc4)sc3c2cc1OC

photoluminescence quantum yield (in ClCCl): 0.1
Structure (SMILES): O=c1oc2ccccc2c2c1c(=O)oc1cc(O)cc(O)c12

photoluminescence quantum yield (in C1CCOC1): 0.002
Structure (SMILES): C1=[N+]2N=C(c3ccccc3)O[B-]2(c2ccc([B-]34OC(c5ccccc5)=N[N+]3=Cc3c(ccc5ccccc35)O4)cc2)Oc2ccc3ccccc3c21 (stereo not given)

photoluminescence quantum yield (in ClCCl): 0.59
Structure (SMILES): CN(C)c1ccc(/C=C/c2cnc3ccccc3n2)cc1

photoluminescence quantum yield (in C1CCOC1): 0.5
Structure (SMILES): c1cc2ccc3cc4[nH]c(-c5cc6c(cc7ccc8cccc9ccc6c7c89)[nH]5)cc4c4ccc(c1)c2c34

photoluminescence quantum yield (in ClCCl): 0.07
Structure (SMILES): N#CC(C#N)=Cc1ccc2c(c1)c1cc(C=C(C#N)C#N)ccc1n2-c1cccc2ccccc12

photoluminescence quantum yield (in CN(C)C=O): 0.066
Structure (SMILES): O=C([O-])c1ccc(C(=O)[O-])c2cc3ccccc3cc12

photoluminescence quantum yield (in C1CCCCC1): 0.88
photoluminescence quantum yield (in CCOC(C)=O): 0.93
photoluminescence quantum yield (in CO): 0.88
Structure (SMILES): Cc1ccccc1C1=C2C=c3c(oc4ccccc34)=[N+]2[B-](F)(F)n2c1cc1c3ccccc3oc12

photoluminescence quantum yield (in ClC(Cl)Cl): 0.14
Structure (SMILES): CCCCc1ccc(-n2c3c4ccc(C(F)(F)F)cc4nc(-c4ccc(C#N)cc4)c3c3c2c2c(-c4ccc(C#N)cc4)nc4cc(C(F)(F)F)ccc4c2n3-c2ccc(CCCC)cc2)cc1

photoluminescence quantum yield (in ClCCl): 0.0031
Structure (SMILES): c1ccc2c(c1)c1ccc3cccc4c3c1c2c1c2cccc3ccc5c6ccccc6c(c5c32)c41

photoluminescence quantum yield (in ClCCl): 0.98
Structure (SMILES): O=P1(c2ccccc2)C2=C(c3ccccc31)S(=O)(=O)c1ccccc12 (stereo not given)

photoluminescence quantum yield (in CS(C)=O): 0.018
Structure (SMILES): COc1ccc(NC(=O)C(C(=O)Nc2ccc(OC)cc2)C(c2cc(F)ccc2O)c2c[nH]c3ccc(OC)cc23)cc1 (stereo not given)

photoluminescence quantum yield (in ClC(Cl)Cl): 0.186
Structure (SMILES): O=C1c2ccc3c4c(-c5ccccc5)cc5c6c(ccc(c7c(-c8ccccc8)cc(c2c37)C(=O)N1C1CCCCC1)c64)C(=O)N(C1CCCCC1)C5=O

photoluminescence quantum yield (in ClCCl): 0.49
Structure (SMILES): COc1cccc(OC)c1-c1c2ccc(=[N+]3CCN(C(=O)OC(C)(C)C)CC3)cc-2oc2cc(N3CCN(C(=O)OC(C)(C)C)CC3)ccc12

photoluminescence quantum yield (in CS(C)=O): 0.381
Structure (SMILES): CCN1\C(=C/C=C/C=C/C2=[N+](CC)c3ccc4cc(Br)ccc4c3C2(C)C)C(C)(C)c2c1ccc1cc(Br)ccc21

photoluminescence quantum yield (in ClC(Cl)Cl): 0.046
Structure (SMILES): F[B-]1(F)OC(c2ccccc2)=Cc2c3ccccc3cc[n+]21

photoluminescence quantum yield (in ClCCl): 0.68
Structure (SMILES): COc1ccc(/C=C/c2nc(/C=C/c3ccc(N(C)C)cc3)cc(/C=C/c3ccc(N(c4ccccc4)c4ccccc4)cc3)n2)cc1

photoluminescence quantum yield (in ClC(Cl)Cl): 0.697
Structure (SMILES): CCCCc1c2c(nc3ccccc13)-c1cc3c(cc1CC2)-c1nc2ccccc2c(CCCC)c1CC3

photoluminescence quantum yield (in ClCCl): 0.01
Structure (SMILES): COc1ccc(/C=C/c2ccncn2)cc1

photoluminescence quantum yield (in c1cc(-n2c3ccccc3c3ccccc32)cc(-n2c3ccccc3c3ccccc32)c1): 0.15
Structure (SMILES): O=C(c1ccccc1)c1cc2ccc1CCc1ccc(c(-c3ccc(N(c4ccccc4)c4ccccc4)cc3)c1)CC2

photoluminescence quantum yield (in C1CCCCC1): 0.52
photoluminescence quantum yield (in CC#N): 0.43
photoluminescence quantum yield (in ClCCl): 0.7
Structure (SMILES): c1ccc2c(-c3ccc4sc5ccccc5c4c3)c3ccccc3cc2c1

photoluminescence quantum yield (in C1CCOC1): 0.972
photoluminescence quantum yield (in CC#N): 0.973
photoluminescence quantum yield (in CN(C)C=O): 0.949
photoluminescence quantum yield (in ClC(Cl)Cl): 0.982
photoluminescence quantum yield (in c1ccccc1): 0.972
Structure (SMILES): COc1ccc(C#Cc2ccc(C#Cc3ccc(C#Cc4ccccc4C#N)cc3C#N)cc2C#N)cc1

photoluminescence quantum yield (in CS(C)=O): 0.0094
Structure (SMILES): COC(=O)[C@@H]1C(=O)Oc2ccccc2[C@H]1c1c[nH]c2ccccc12

photoluminescence quantum yield (in C1COCCO1): 0.4
photoluminescence quantum yield (in CC#N): 0.32
photoluminescence quantum yield (in CCCCOCCCC): 0.37
photoluminescence quantum yield (in CCOC(C)=O): 0.33
Structure (SMILES): COc1nc(Cl)nc(Nc2ccc3c4cccc5cccc(c6cccc2c63)c54)n1

photoluminescence quantum yield (in CCCCCC): 0.69
photoluminescence quantum yield (in CCCCCCCCO): 0.45
photoluminescence quantum yield (in CCOC(C)=O): 0.55
photoluminescence quantum yield (in CN(C)C=O): 0.4
photoluminescence quantum yield (in ClCCl): 0.44
Structure (SMILES): CC1=CC(C)=[N+]2C1=Cc1c3ccccc3c(C#Cc3cccs3)n1[B-]2(F)F

photoluminescence quantum yield (in ClCCl): 0.07
Structure (SMILES): CC(C)(C)NC(=O)c1ccc(C(=O)NC(C)(C)C)c2c1c1c3ccc(Cl)cc3c3cc(Cl)ccc3c1c1c3ccc(Cl)cc3c3cc(Cl)ccc3c21
